Experimental data: patent US20150157739A1, “Imidazo[2,1]thiazol-3-one derivatives” (Hoffmann-La Roche Inc., priority 2012, published 2015)

Key:
[1] = molecular target: T1, aggregated recombinant human-microtubule associated protein Tau (Homo sapiens, UniProt P10636); assay: Thiazin-red R displacement fluorescence assay on aggregated Tau; format: binding; details: displacement of Thiazin-red R from aggregated Tau; compound 0.3 nM to 10000 nM; 30 min room temperature; Ex 531 nm/Em 595 nm
T1 construct: Recombinant human-microtubule associated protein Tau purified from E. coli is aggregated at a concentration of 5 μM with Arachidonic Acid (100 μM) in Tris 10 mM pH8, 24 h at 37° C
T1 sequence (P10636 whole entry): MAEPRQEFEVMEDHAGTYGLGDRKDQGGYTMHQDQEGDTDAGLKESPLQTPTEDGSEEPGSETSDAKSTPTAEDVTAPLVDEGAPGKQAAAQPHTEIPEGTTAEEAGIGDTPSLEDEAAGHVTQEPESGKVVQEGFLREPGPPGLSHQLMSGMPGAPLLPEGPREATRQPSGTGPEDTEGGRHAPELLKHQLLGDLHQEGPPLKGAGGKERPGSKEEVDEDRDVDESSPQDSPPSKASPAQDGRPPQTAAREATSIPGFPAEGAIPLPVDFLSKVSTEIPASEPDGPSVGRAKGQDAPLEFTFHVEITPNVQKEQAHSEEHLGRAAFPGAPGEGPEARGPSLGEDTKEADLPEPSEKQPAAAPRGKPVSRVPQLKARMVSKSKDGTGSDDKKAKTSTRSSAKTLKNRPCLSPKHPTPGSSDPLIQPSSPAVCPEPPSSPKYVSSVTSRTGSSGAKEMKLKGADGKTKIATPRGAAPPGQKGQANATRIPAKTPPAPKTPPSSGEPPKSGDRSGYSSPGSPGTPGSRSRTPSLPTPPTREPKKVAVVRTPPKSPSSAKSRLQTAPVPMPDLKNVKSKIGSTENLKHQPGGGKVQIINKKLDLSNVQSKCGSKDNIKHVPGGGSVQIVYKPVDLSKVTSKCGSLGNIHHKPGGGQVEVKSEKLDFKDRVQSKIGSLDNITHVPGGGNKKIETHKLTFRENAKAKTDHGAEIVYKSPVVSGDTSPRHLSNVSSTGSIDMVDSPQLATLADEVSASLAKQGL
Method: (§1) Assay for Determination of […] for Tau and A-Beta
(§2) Recombinant human-microtubule associated protein Tau purified from E. coli is aggregated at a concentration of 5 μM with Arachidonic Acid (100 μM) in Tris 10 mM pH8, 24 h at 37° C. Synthetic Aβ40 is aggregated at a concentration of 50 μM with Arachidonic Acid (100 μM) in Tris 10 mM pH8, for three days at 37° C., under shaking at 150 rpm.
(§3) A saturation analysis of Thiazin-red R to the aggregated proteins is done to determine the affinity (Kd) of the Thiazin-red R to the aggregated protein.
(§4) Thiazin-red R will be added at the concentration corresponding to the Kd to the respective aggregated protein binding site, to induce a fluorescent signal that can be inhibited by the addition of a displacer compound.
(§5) In parallel, auto fluorescence of the compound is measured together with the aggregated proteins, but without Thiazin-red R. As negative control, ligand and aggregated protein is used and as positive control, Thiazin-red R, reference compound with known activity and aggregated protein is used.
(§6) Assay is performed in Perkin Elmer OptiPlate 384, black, 45 ul assay volume, assay buffer is DPBS no CaCl2 no MgCl2 (GIBCO N. 14020). Tested compounds are diluted in DMSO and 2 μl is added to the assay ([…]). Assay is started by the addition of the aggregated protein (competitive condition). Plates are shortly shacked (1 min with Sterico variomag teleshake) and incubated for 30 min at room temperature. Measurement are done with En:Vision (Perkin Elmer), at Excitation 531 nm/Emission 595 nm.

[2] = molecular target: T2, aggregated synthetic Aβ40 (Homo sapiens, UniProt P05067); assay: Thiazin-red R displacement fluorescence assay on aggregated A-beta; format: binding; details: displacement of Thiazin-red R from aggregated Aβ40; compound 0.3 nM to 10000 nM; 30 min room temperature; Ex 531 nm/Em 595 nm
T2 construct: Synthetic Aβ40 is aggregated at a concentration of 50 μM
T2 sequence (P05067 672-711 limits assumed): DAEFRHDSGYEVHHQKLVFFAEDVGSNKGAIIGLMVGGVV
Method: as §1, §2, §3, §4, §5, §6

Row | Structure (SMILES) | IC50 [1] [nM] | IC50 [2] [nM]
1 | COc1cc(/C=c2\sc3nc(-c4cccc(C#N)c4)cn3c2=O)cc(OC(C)C)c1O [Example 51, 3-{2-[1-(4-Hydroxy-3-methoxy-5-isopropoxyphenyl)-meth-(Z)-ylidene]-3-oxo-2,3-dihydro-imidazo[2,1-b]thiazol-6-yl}-benzonitrile] | 275 | > 10000
2 | COc1cc(/C=c2\sc3nc(-c4cccc(C)c4)cn3c2=O)cc(Cl)c1O [Example 52, 2-[1-(3-Chloro-4-hydroxy-5-methoxy-phenyl)-meth-(Z)-ylidene]-6-m-tolyl-imidazo[2,1-b]thiazol-3-one] | 7 | 1020
3 | COc1cc(/C=c2\sc3nc(-c4ccccc4F)cn3c2=O)cc(Cl)c1O [Example 53, 2-[1-(3-Chloro-4-hydroxy-5-methoxy-phenyl)-meth-(Z)-ylidene]-6-(2-fluoro-phenyl)-imidazo[2,1-b]thiazol-3-one] | 16 | 5650
4 | CCc1cccc(-c2cn3c(=O)/c(=C/c4cc(Cl)c(O)c(OC)c4)sc3n2)c1 [Example 54, 2-[1-(3-Chloro-4-hydroxy-5-methoxy-phenyl)-meth-(Z)-ylidene]-6-(3-ethyl-phenyl)-imidazo[2,1-b]thiazol-3-one] | 25 | 653
5 | COc1cc(/C=c2\sc3nc(-c4cccc(F)c4)cn3c2=O)cc(Cl)c1O [Example 57, 2-[1-(3-Chloro-4-hydroxy-5-methoxy-phenyl)-meth-(Z)-ylidene]-6-(3-fluoro-phenyl)-imidazo[2,1-b]thiazol-3-one] | 6 | 3320
6 | COc1cc(/C=c2\sc3nc(-c4cccc(F)c4)cn3c2=O)cc(F)c1O [Example 58, 2-[1-(3-Fluoro-4-hydroxy-5-methoxy-phenyl)-meth-(Z)-ylidene]-6-(3-fluoro-phenyl)-imidazo[2,1-b]thiazol-3-one] | 19 | 752
7 | COc1cc(/C=c2\sc3nc(-c4cccc(F)c4)cn3c2=O)cc(OC)c1O [Example 59, 2-[1-(4-Hydroxy-3,5-dimethoxy-phenyl)-meth-(Z)-ylidene]-6-(3-fluoro-phenyl)-imidazo[2,1-b]thiazol-3-one] | 2 | 50
8 | COc1cc(/C=c2\sc3nc(-c4ccccc4)cn3c2=O)cc(Cl)c1O [Example 60, 2-[1-(3-Chloro-4-hydroxy-5-methoxy-phenyl)-meth-(Z)-ylidene]-6-phenyl-imidazo[2,1-b]thiazol-3-one] | 25 | 851
9 | COc1cccc(-c2cn3c(=O)/c(=C/c4cc(Cl)c(O)c(OC)c4)sc3n2)c1 [Example 61, 2-[1-(3-Chloro-4-hydroxy-5-methoxy-phenyl)-meth-(Z)-ylidene]-6-(3-methoxy-phenyl)-imidazo[2,1-b]thiazol-3-one] | 4 | 395
10 | COc1cc(/C=c2\sc3nc(-c4cccc(OC(F)F)c4)cn3c2=O)cc(Cl)c1O [Example 62, 2-[1-(3-Chloro-4-hydroxy-5-methoxy-phenyl)-meth-(Z)-ylidene]-6-(3-(difluoromethoxy)-phenyl)-imidazo[2,1-b]thiazol-3-one] | 6 | 4160
11 | COc1cc(/C=c2\sc3nc(-c4cc(C)nc(C)c4)cn3c2=O)cc(Cl)c1O [Example 63, 2-[1-(3-Chloro-4-hydroxy-5-methoxy-phenyl)-meth-(Z)-ylidene]-6-(2,6-dimethyl-pyridin-4-yl)-imidazo[2,1-b]thiazol-3-one] | 13 | 418
12 | COc1cc(/C=c2\sc3nc(-c4cc(C)nc(C)c4)cn3c2=O)cc(F)c1O [Example 64, 2-[1-(3-Fluoro-4-hydroxy-5-methoxy-phenyl)-meth-(Z)-ylidene]-6-(2,6-dimethyl-pyridin-4-yl)-imidazo[2,1-b]thiazol-3-one] | 32 | 406
13 | COc1cc(/C=c2\sc3nc(-c4cc(C)nc(C)c4)cn3c2=O)cc(Br)c1O [Example 65, 2-[1-(3-Bromo-4-hydroxy-5-methoxy-phenyl)-meth-(Z)-ylidene]-6-(2,6-dimethyl-pyridin-4-yl)-imidazo[2,1-b]thiazol-3-one] | 7 | 304
14 | COc1cc(/C=c2\sc3nc(-c4cccc(CCl)c4)cn3c2=O)cc(Cl)c1O [Example 67, 2-[1-(3-Chloro-4-hydroxy-5-methoxy-phenyl)-meth-(Z)-ylidene]-6-(3-(chloromethyl)phenyl)-imidazo[2,1-b]thiazol-3-one] | 0.8 | 9
15 | COc1cc(/C=c2\sc3nc(-c4ccncc4)cn3c2=O)cc(Cl)c1O [Example 68, 2-[1-(3-Chloro-4-hydroxy-5-methoxy-phenyl)-meth-(Z)-ylidene]-6-(pyridin-4-yl)-imidazo[2,1-b]thiazol-3-one] | 3 | 300
16 | COc1cc(/C=c2\sc3nc(-c4ccncc4)cn3c2=O)cc(F)c1O [Example 69, 2-[1-(3-Fluoro-4-hydroxy-5-methoxy-phenyl)-meth-(Z)-ylidene]-6-(pyridin-4-yl)-imidazo[2,1-b]thiazol-3-one] | 20 | 620
17 | COc1cc(/C=c2\sc3nc(-c4ccncc4)cn3c2=O)cc(Br)c1O [Example 70, 2-[1-(3-Bromo-4-hydroxy-5-methoxy-phenyl)-meth-(Z)-ylidene]-6-(pyridin-4-yl)-imidazo[2,1-b]thiazol-3-one] | 1.3 | 103

Continued, values first:

Row | IC50 [1] [nM] | IC50 [2] [nM] | Structure (SMILES)
18 | 20 | 238 | COc1cc(/C=c2\sc3nc(-c4cccnc4)cn3c2=O)cc(F)c1O [Example 71, 2-[1-(3-Fluoro-4-hydroxy-5-methoxy-phenyl)-meth-(Z)-ylidene]-6-(pyridin-3-yl)-imidazo[2,1-b]thiazol-3-one]
19 | 3 | 229 | COc1cc(/C=c2\sc3nc(-c4cccnc4)cn3c2=O)cc(Br)c1O [Example 72, 2-[1-(3-Bromo-4-hydroxy-5-methoxy-phenyl)-meth-(Z)-ylidene]-6-(pyridin-3-yl)-imidazo[2,1-b]thiazol-3-one]
20 | 5 | 55 | COc1cc(/C=c2\sc3nc(-c4cccc(OCCF)c4)cn3c2=O)cc(Cl)c1O [Example 74, 2-[1-(3-Chloro-4-hydroxy-5-methoxy-phenyl)-meth-(Z)-ylidene]-6-(3-(2-fluoroethoxyl)phenyl)-imidazo[2,1-b]thiazol-3-one]
21 | 1.3 | 122 | COc1cc(/C=c2\sc3nc(-c4ccnc(C)c4)cn3c2=O)cc(Cl)c1O [Example 75, 2-[1-(3-Chloro-4-hydroxy-5-methoxy-phenyl)-meth-(Z)-ylidene]-6-(2-methylpyridin-4-yl)-imidazo[2,1-b]thiazol-3-one]
22 | 6 | 260 | COc1cc(/C=c2\sc3nc(-c4ccnc(C)c4)cn3c2=O)cc(F)c1O [Example 76, 2-[1-(3-Fluoro-4-hydroxy-5-methoxy-phenyl)-meth-(Z)-ylidene]-6-(2-methylpyridin-4-yl)-imidazo[2,1-b]thiazol-3-one]
23 | 1 | 76 | COc1cc(/C=c2\sc3nc(-c4ccnc(C)c4)cn3c2=O)cc(Br)c1O [Example 77, 2-[1-(3-Bromo-4-hydroxy-5-methoxy-phenyl)-meth-(Z)-ylidene]-6-(2-methylpyridin-4-yl)-imidazo[2,1-b]thiazol-3-one]
24 | 10.4 | 700 | COc1cc(/C=c2\sc3nc(-c4cccnc4)cn3c2=O)cc(Cl)c1O [Example 78, 2-[1-(3-Chloro-4-hydroxy-5-methoxy-phenyl)-meth-(Z)-ylidene]-6-(pyridin-3-yl)-imidazo[2,1-b]thiazol-3-one]
25 | 6 | 25 | COc1cc(/C=c2\sc3nc(-c4ccc(OCCF)cc4)cn3c2=O)cc(Cl)c1O [Example 79, 2-[1-(3-Chloro-4-hydroxy-5-methoxy-phenyl)-meth-(Z)-ylidene]-6-(4-(2-fluoroethoxyl)phenyl)-imidazo[2,1-b]thiazol-3-one]
26 | 6 | 20 | C=CCOc1cccc(-c2cn3c(=O)/c(=C/c4cc(Cl)c(O)c(OC)c4)sc3n2)c1 [Example 80, 2-[1-(3-Chloro-4-hydroxy-5-methoxy-phenyl)-meth-(Z)-ylidene]-6-(3-(allyloxy)phenyl)-imidazo[2,1-b]thiazol-3-one]
27 | 18 | 990 | COc1cc(/C=c2\sc3nc(-c4cc(C)on4)cn3c2=O)cc(Cl)c1O [Example 84, 2-[1-(3-Chloro-4-hydroxy-5-methoxy-phenyl)-meth-(Z)-ylidene]-6-(5-methyl-isoxazol-3-yl)-imidazo[2,1-b]thiazol-3-one]
